Measured values published in patent US5879942A, “Processing enzyme for polypeptide” (Kabushiki Kaisha Hayashibara Seibutsu Kagaku Kenkyujo, priority 1996, dated 1999).

Molecular target: T1, the present enzyme (Homo sapiens, UniProt P29466)
T1 construct: Using the anti-human ICE-p20 antibody and the antihuman ICE-p10 antibody; endogenous in cells
T1 sequence (P29466 120-297 limits assumed): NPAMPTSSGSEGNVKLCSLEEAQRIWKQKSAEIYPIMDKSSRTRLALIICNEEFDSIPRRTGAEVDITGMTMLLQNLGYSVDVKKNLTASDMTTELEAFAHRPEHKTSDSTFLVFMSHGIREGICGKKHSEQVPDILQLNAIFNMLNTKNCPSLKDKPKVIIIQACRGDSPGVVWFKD
T1 sequence (P29466 317-404 limits assumed): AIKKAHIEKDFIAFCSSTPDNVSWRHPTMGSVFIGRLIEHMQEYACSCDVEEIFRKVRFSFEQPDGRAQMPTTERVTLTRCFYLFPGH
Experiment: Activity of inhibitory agent on enzyme: conversion of precursor, Western Blotting
Type: biochemical
Details: for band corresponding to the active form on Western Blotting: enzyme of Example 1 (THP-1 cells), 37° C. for 3 hours; for Inhibitory agent: enzyme obtainable from a human hematopoietic cell, general property; for enzyme activity inhibited: enzyme of Example 7 (HL-60 cells), methods in Examples 2-5
Method: A substrate solution was prepared by dissolving the precursor of the polypeptide in Example 4-1 in 100 mM Hepes buffer (pH 7.4), containing 10 v/v % glycerol, 0.1 w/v % CHAPS and 2 mM dithiothreitol, to give a concentration of 500 nM, and mixed with 350 units/ml of the enzyme solution in Example 1, followed by the incubation at 37° C. At 0 min, 10 min, 30 min, one hour, 3 hours, 6 hours and 18 hours after initiating the incubation, a portion of the reaction mixture was sampled at each sampling time and admixed with iodoacetamide to give a final concentration of 200 μg/ml to suspend the reaction. The Western Blotting method using the monoclonal antibody, as disclosed in Japanese Patent Application No.231,598/96 applied by the same applicant of the present invention, was applied to the reaction mixture to study the change on passage of time during the conversion of the precursor into the active form.
In the conversion method for precursor in Example 4-2, the present enzyme in Example 1 was admixed with 5 μM Ac-YVAD-CHO or 650 μM iodoacetamide and reacted at 37° C. for 3 hours.

Structure (SMILES)	band corresponding to the active form on Western Blotting (5 μM Ac-YVAD-CHO)	Inhibitory agent	enzyme activity inhibited	band corresponding to the active form on Western Blotting (650 μM iodoacetamide)
CC(=O)N[C@@H](Cc1ccc(O)cc1)C(=O)N[C@H](C(=O)N[C@@H](C)C(=O)N[C@H](C=O)CC(=O)O)C(C)C [Ac-YVAD-CHO, acetyl-L-tyrosyl-L-varyl-L-alanyl-L-aspart-1-al]	no band corresponding to the active form was detected	inhibited	inhibited	
NC(=O)CI [iodoacetamide]		inhibited	inhibited	no band corresponding to the active form was detected
